Measured values published in PubChem BioAssay (NCI).
Values joined by “and” are separate entries in the source; they are usually repeats but may differ in a detail not shown here. Equal values may be shown once.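 Five compound concentrations were applied to cells in 96-well plates for 48 hours; endpoints were derived by simple linear interpolation of the resulting dose-response curve. GI50: concentration for 50% inhibition of growth. TGI is the concentration that stops growth completely.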 *1 amine or outer side, *2 acyl side, *3 side chain or, on linkers, in order; H or OH if unused. Where a SMILES comes first, the peptide text is derived from it. [ ]: non-standard residue; d: D form. The star is where a group is joined. X31 = CC(=O)N(C)SCC(N[*:1])C(=O)[*:2]; Fmoc = O=C(OCC1c2ccccc2-c2ccccc21)*; For = O=C*

Columns and labels:
Assay in all cases: NCI-60 cell line screen, 48 h
[1] = tested on: SK-OV-3 ovarian
[2] = tested on: SN12C renal
[3] = tested on: SK-MEL-28 melanoma
[4] = tested on: KM12 colon
[5] = tested on: COLO 205 colon
[6] = tested on: MDA-MB-435
[7] = tested on: UACC-257 melanoma
[8] = tested on: RXF 393 renal
[9] = tested on: K-562 leukemia
[10] = tested on: MDA-MB-231 breast

SMILES	TGI [1]	TGI [2]	TGI [3]	TGI [4]	TGI [5]	TGI [6]	TGI [7]	TGI [8]	TGI [9]	TGI [10]	GI50 [1] [µM]	GI50 [2] [µM]	GI50 [3] [µM]	GI50 [4] [µM]	GI50 [5] [µM]	GI50 [6] [µM]	GI50 [7] [µM]	GI50 [8] [µM]	GI50 [9] [µM]	GI50 [10] [µM]
CC(=O)N(C)SCC(NC(=O)C(Cc1ccccc1)NC(=O)OCC1c2ccccc2-c2ccccc21)C(=O)NC(Cc1ccccc1)C(=O)NC(Cc1cn(C=O)c2ccccc12)C(=O)NC(CCCCNC(=O)OCC1c2ccccc2-c2ccccc21)C(=O)NC(C(=O)NC(CSN(C)C(C)=O)C(=O)NC(C(N)=O)C(C)O)C(C)O (stereo unspecified) (Fmoc-F[X31]FW(For)K(Fmoc)T[X31]T-NH2; configuration not given here)	> 100 µM	> 100 µM	> 100 µM	64.5 µM	> 100 µM	> 100 µM	> 100 µM	72.3 µM	> 100 µM	51.4 µM	–	–	–	–	–	–	–	–	–	–
CNc1ncnc2c1cnn2Cc1cn(CCCCO)nn1	> 100 µM	> 100 µM	> 100 µM	> 100 µM	> 100 µM	> 100 µM	> 100 µM	> 100 µM	> 100 µM	> 100 µM	–	–	–	–	–	–	–	–	–	–
CC(=O)/C(=C(/Br)I)c1ccccc1	> 64.5 µM	17.4 µM	26.5 µM	28.2 µM	26.4 µM	11.9 µM	25.4 µM	13.3 µM	> 31.6 µM	28.7 µM	–	–	–	–	–	–	–	–	–	–
Cc1ccc(S(=O)(=O)Nc2cc(Sc3ccccc3)c(O)c3ccccc23)cc1	29.8 µM	5.68 µM	15 µM	18.9 µM	42.4 µM	3.26 µM	3.67 µM	9.38 µM	10.7 µM	6.16 µM	15.6	2.31	4.4	6.01	19.5	1.8	1.86	3.11	3.38	2.43
Nc1nc(NCCOCP(=O)(O)O)c(N)c(=O)[nH]1	> 100 µM	> 100 µM	> 100 µM	> 100 µM	> 100 µM	> 100 µM	> 100 µM	> 100 µM	> 100 µM	> 100 µM	–	–	–	–	–	–	–	–	–	–
Cc1ncc(CO)c(C=NCCCCCCN=Cc2c(CO)cnc(C)c2O)c1O	> 100 µM	> 100 µM	> 100 µM	> 100 µM	> 100 µM	> 100 µM	> 100 µM	> 100 µM	> 100 µM	> 100 µM	–	–	–	–	–	–	–	–	–	–
Cc1cn2c(/C=C3/C(=O)Nc4ccccc43)c(C)nc2s1	25.7 µM	42.2 µM	> 100 µM	29.7 µM	15.6 µM	0.619 µM	> 100 µM	> 100 µM	17.2 µM	43.4 µM	–	–	–	–	–	–	–	–	–	–
O=C(O)CCc1nc2cc3ccccc3cc2[nH]c1=O	> 100 µM	> 100 µM	> 100 µM	> 100 µM	> 100 µM	> 100 µM	> 100 µM	> 100 µM	> 100 µM	> 100 µM	–	–	–	–	–	–	–	–	–	–
CCN1C(=O)CS/C1=N\NC(=O)CSc1nc2ccccc2c(=O)n1CC	> 100 µM	> 100 µM	> 100 µM	> 100 µM	> 100 µM	> 100 µM	> 100 µM	> 100 µM	> 100 µM	> 100 µM	–	–	–	–	–	–	–	–	–	–
CCCCCCC(=O)OC[n+]1cccc(-c2c(COC(=O)NC(C)C)c(COC(=O)NC(C)C)c3n2CCC3)c1	> 100 µM	> 100 µM	> 100 µM	> 100 µM	> 100 µM	> 100 µM	> 100 µM	51.5 µM	> 100 µM	> 100 µM	–	–	–	–	–	–	–	–	–	–
CC(C)OP(=O)(OC(C)C)C(Nc1cccc(C(F)(F)F)c1)c1ccccc1 (stereo unspecified)	> 100 µM	> 100 µM	> 100 µM	> 100 µM	84 µM	> 100 µM	> 100 µM	> 100 µM	> 100 µM	> 100 µM	–	–	–	–	–	–	–	–	–	–
O=[N+]([O-])c1ccc2[nH]c(O)c(N=NC(=S)Nc3ccccc3)c2c1	28.2 µM	25.8 µM	52.2 µM	27 µM	> 100 µM	26.9 µM	27.4 µM	26.4 µM	> 100 µM	24.8 µM	–	–	–	–	–	–	–	–	–	–
CCOC(=O)Oc1ccc2c(c1)c(=O)c1c(NCCCN(CC)CC)ccc3nnn2c31	23.4 µM	19.1 µM	33.2 µM	19.8 µM	25.1 µM	18.3 µM	29.8 µM	19.8 µM	> 52.7 µM	21.8 µM	–	–	–	–	–	–	–	–	–	–
COc1cccc(C(=O)N[C@@H]2[C@H](O)[C@@H](CO)O[C@H]2n2cnc3c(N)ncnc32)c1	> 100 µM	> 100 µM	> 100 µM	> 100 µM	> 100 µM	> 100 µM	> 100 µM	> 100 µM	> 100 µM	> 100 µM	–	–	–	–	–	–	–	–	–	–
COc1ccccc1N1C(=O)CC(=O)N(C(=O)CCCCCCCCC(=O)N2C(=O)CC(=O)N(c3ccccc3OC)C2=S)C1=S	> 100 µM	> 100 µM	> 100 µM	> 100 µM	> 100 µM	> 100 µM	> 100 µM	> 100 µM	> 100 µM	> 100 µM	–	–	–	–	–	–	–	–	–	–
Cc1cc(C#N)c(Nc2ccccc2[N+](=O)[O-])s1	> 100 µM	67.7 µM	> 100 µM	> 100 µM	> 100 µM	47.5 µM	> 100 µM	47 µM	> 100 µM	92.4 µM	–	–	–	–	–	–	–	–	–	–
CCSC12CC3c4cccc5c4C(CN5C(=O)c4ccccc4)CC3(O1)N(C)C2=O (stereo unspecified)	> 100 µM	62.9 µM	> 100 µM	> 100 µM	75 µM	> 100 µM	> 100 µM	> 100 µM	> 100 µM	> 100 µM	–	–	–	–	–	–	–	–	–	–

SMILES	TGI [1]	TGI [2]	TGI [3]	TGI [4]	TGI [5]	TGI [6]	TGI [7]	TGI [8]	TGI [9]	TGI [10]	GI50 [1] [µM]	GI50 [2] [µM]	GI50 [3] [µM]	GI50 [4] [µM]	GI50 [5] [µM]	GI50 [6] [µM]	GI50 [7] [µM]	GI50 [8] [µM]	GI50 [9] [µM]	GI50 [10] [µM]
CCN(CC)CCC(=O)O[C@H]1CC[C@H](CC(C)[C@H]2CC(=O)C(C)C=C(C)[C@H](OC(=O)CCN(CC)CC)C(OC)C(=O)[C@@H](C)CC(C)/C=C/C=C/C=C(C)C(OC)CC3CC[C@H](C)[C@](O)(O3)C(=O)C(=O)N3CCCCC3C(=O)O2)CC1OC (stereo partly specified)	5.53 µM	4.28 µM and 2.17 µM	1.95 µM	> 10 µM and 2.03 µM	2.8 µM and 2.49 µM	2.35 µM and 2.04 µM	2.54 µM and 2.72 µM	2.2 µM	5.2 µM and 3.65 µM	8.14 µM and 1.74 µM	–	1.42	–	–	1.04	1.14	–	–	–	1.86
CCOP(=O)(OCC)C(=C1C=C(C(C)(C)C)C(=O)C(C(C)(C)C)=C1)P(=O)(OCC)OCC	> 10 µM	> 10 µM	> 10 µM	> 10 µM	4.2 µM	> 10 µM	> 10 µM	> 10 µM	> 7.45 µM	> 10 µM	–	–	–	–	–	–	–	–	–	–
COc1ccc(N2C(=O)C3c4[nH]c5ccc(OCc6ccccc6)cc5c4C4CCC(C(C)C)CC4C3C2=O)cc1 (stereo unspecified)	43 µM	> 100 µM	> 100 µM	> 100 µM	> 100 µM	> 100 µM	> 100 µM	32.9 µM	> 68.3 µM	37.9 µM	–	–	–	–	–	–	–	–	–	–
COc1nc(C)nc2c1ncn2Cc1ccccc1	> 100 µM	> 100 µM	> 100 µM	> 100 µM	> 100 µM	> 100 µM	> 100 µM	> 100 µM	> 100 µM	> 100 µM	–	–	–	–	–	–	–	–	–	–
Cc1ccc(N2C(=O)C(=O)N(/N=C3\C(=O)Nc4ccccc43)C2=S)cc1	> 100 µM	> 100 µM	> 100 µM	> 100 µM	> 100 µM	> 100 µM	> 100 µM	> 100 µM	> 100 µM	> 100 µM	–	–	–	–	–	–	–	–	–	–
C(=N/NC1=NCCN1)/c1c2ccccc2c(/C=N\NC2=NCCN2)c2ccccc12	0.526 µM and 1.82 µM and 3.48 µM	0.545 µM and 1.72 µM and 1.94 µM	1.01 µM and 1.08 µM and 0.685 µM	0.816 µM and 0.96 µM and 2 µM	0.366 µM and 0.609 µM and 1.41 µM	0.271 µM and 0.477 µM	0.393 µM and 0.902 µM and 0.801 µM	0.829 µM and 2.08 µM and 0.596 µM	3.63 µM and 4.43 µM and 1.7 µM	1.66 µM and 12.5 µM	–	–	–	–	–	0.155	–	–	–	0.459
Cc1cc(-c2ccc(C(=O)C(c3ccccc3)(c3ccccc3)c3ccccc3)[nH]2)on1	> 100 µM	40.6 µM	52.9 µM	47.5 µM	42.2 µM	67.7 µM	> 100 µM	9.46 µM	> 100 µM	49.6 µM	–	–	–	–	–	–	–	–	–	–
CSc1nc(-c2ccc(Cl)cc2)c(C#N)c(=O)[nH]1	> 100 µM	> 100 µM	> 100 µM	> 100 µM	> 100 µM	> 100 µM	> 100 µM	> 100 µM	> 100 µM	> 100 µM	–	–	–	–	–	–	–	–	–	–
CC(=O)NC(CO)C(=O)NC(Cc1ccc(O)cc1)C(=O)NCC(N)=O (stereo not drawn) (Ac-Ser-Tyr-Gly-NH2; configuration not given here)	> 100 µM	> 100 µM	> 100 µM	> 100 µM	> 100 µM	> 100 µM	> 100 µM	> 100 µM	> 100 µM	> 100 µM	–	–	–	–	–	–	–	–	–	–
CC(=O)Nc1nnc(S(=O)(=O)NC(=S)Nc2ccc(Cl)cc2)s1	> 100 µM	> 100 µM	> 100 µM	> 100 µM	> 100 µM	> 100 µM	> 100 µM	> 100 µM	> 100 µM	> 100 µM	–	–	–	–	–	–	–	–	–	–
COC(=O)C1=NN2c3ccccc3CN([C@@H](C)c3ccccc3)C(=O)[C@H]2[C@@H]1C	> 100 µM	> 100 µM	> 100 µM	> 100 µM	66.8 µM	> 100 µM	> 100 µM	> 100 µM	> 100 µM	> 100 µM	–	–	–	–	–	–	–	–	–	–
NCCC1([N+](=O)[O-])CCNCC1	> 100 µM	> 100 µM	> 100 µM	> 100 µM	> 100 µM	> 100 µM	> 100 µM	> 100 µM	> 100 µM	> 100 µM	–	–	–	–	–	–	–	–	–	–
C=C(CC)C[C@@H]1C[C@]2(C(=O)OC)c3[nH]c4ccccc4c3CCN2C1=O	63.9 µM	41.3 µM	39.9 µM	58.9 µM	> 100 µM	43.7 µM	41.9 µM	27.7 µM	58.1 µM	54.7 µM	–	–	–	–	–	–	–	–	–	–
CN1CCCC(C(=O)OCC(=O)C2(O)CCC3C4CCC5=CC(=O)CCC5(C)C4C(O)CC32C)C1 (stereo unspecified)	45.6 µM	24 µM	35.4 µM	> 69.7 µM	32.9 µM	33.4 µM	38.2 µM	23.1 µM	28.7 µM	19.2 µM	–	–	–	–	–	–	–	–	–	–
COC(=O)CCC(C)[C@H]1CCC2C3C(C[C@H](OC(C)=O)[C@@]21C)[C@@]1(C)CCC2(C[C@H]1C[C@H]3OC(C)=O)OOC1(CCCCC1)OO2 (stereo partly specified)	> 100 µM	> 100 µM	> 100 µM	> 100 µM	> 100 µM	> 100 µM	> 100 µM	> 100 µM	> 100 µM	> 100 µM	–	–	–	–	–	–	–	–	–	–
CC1=C(C)C(=O)C(C2=C(C3=CC(=O)C(C)=C(C)C3=O)C(=O)c3ccccc3C2=O)=CC1=O	30.5 µM	4.06 µM	5.03 µM	11.1 µM	3.93 µM	3.05 µM	4.22 µM	3.38 µM	19.7 µM	6.23 µM	–	–	–	–	–	–	–	–	–	–
